Measured values published in patent publication US20210070748A1, “INHIBITORS OF BRUTONS TYROSINE KINASE” (Pharmacyclics LLC, priority 2015, published 2021).
pIC50: −log10 of the molar value. Read-outs that look alike come from different tables or passages of the source.

Experiments:
Format in all cases: biochemical
EGFR = EGFR (Homo sapiens, UniProt P00533); test: Inhibition of a panel of kinases, in vitro HotSpot kinase assay: EGFR
Protocol: (§1) The degree of inhibition of a panel of kinases is determined using the in vitro HotSpot kinase assay (purified enzymes, ^33P-ATP, an appropriate substrate and 1 μM ATP).

JAK3 = biological target: T1, JAK3 (Homo sapiens, UniProt P52333); test: Inhibition of a panel of kinases, in vitro HotSpot kinase assay: JAK3; conditions: read-out: IC50 JAK3
T1 sequence (P52333 1-1124): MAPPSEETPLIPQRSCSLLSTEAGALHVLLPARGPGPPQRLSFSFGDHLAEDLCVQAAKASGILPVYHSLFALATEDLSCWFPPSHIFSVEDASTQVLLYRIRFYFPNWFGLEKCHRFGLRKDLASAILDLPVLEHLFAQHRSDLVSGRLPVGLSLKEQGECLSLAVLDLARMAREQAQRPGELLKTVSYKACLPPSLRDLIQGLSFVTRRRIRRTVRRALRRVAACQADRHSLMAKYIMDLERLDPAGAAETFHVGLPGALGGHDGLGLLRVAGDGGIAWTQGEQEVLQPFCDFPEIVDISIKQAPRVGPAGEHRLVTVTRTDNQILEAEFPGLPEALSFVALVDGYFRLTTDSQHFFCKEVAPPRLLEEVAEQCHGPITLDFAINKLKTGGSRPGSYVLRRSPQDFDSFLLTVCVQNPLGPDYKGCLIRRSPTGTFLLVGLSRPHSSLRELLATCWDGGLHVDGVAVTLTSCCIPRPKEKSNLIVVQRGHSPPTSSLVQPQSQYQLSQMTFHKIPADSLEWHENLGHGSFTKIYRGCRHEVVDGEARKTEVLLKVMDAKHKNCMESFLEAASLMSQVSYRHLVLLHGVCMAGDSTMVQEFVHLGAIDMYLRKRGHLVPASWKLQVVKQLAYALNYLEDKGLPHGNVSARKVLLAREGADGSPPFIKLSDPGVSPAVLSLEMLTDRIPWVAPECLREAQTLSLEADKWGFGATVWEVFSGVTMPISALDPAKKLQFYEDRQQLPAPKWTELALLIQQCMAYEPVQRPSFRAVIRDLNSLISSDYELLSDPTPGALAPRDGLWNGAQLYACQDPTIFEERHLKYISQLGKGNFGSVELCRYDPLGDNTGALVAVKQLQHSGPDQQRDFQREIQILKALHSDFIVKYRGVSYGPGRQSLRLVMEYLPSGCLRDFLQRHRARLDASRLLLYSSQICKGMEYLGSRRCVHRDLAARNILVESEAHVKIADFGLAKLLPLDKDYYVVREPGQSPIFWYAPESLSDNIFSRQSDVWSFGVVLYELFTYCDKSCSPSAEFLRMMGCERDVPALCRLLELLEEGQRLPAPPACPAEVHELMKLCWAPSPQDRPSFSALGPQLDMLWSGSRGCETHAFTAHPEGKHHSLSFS

SRC = SRC (Homo sapiens, UniProt P12931); test: Inhibition of a panel of kinases, in vitro HotSpot kinase assay: SRC
SRC, sequence (P12931 whole entry): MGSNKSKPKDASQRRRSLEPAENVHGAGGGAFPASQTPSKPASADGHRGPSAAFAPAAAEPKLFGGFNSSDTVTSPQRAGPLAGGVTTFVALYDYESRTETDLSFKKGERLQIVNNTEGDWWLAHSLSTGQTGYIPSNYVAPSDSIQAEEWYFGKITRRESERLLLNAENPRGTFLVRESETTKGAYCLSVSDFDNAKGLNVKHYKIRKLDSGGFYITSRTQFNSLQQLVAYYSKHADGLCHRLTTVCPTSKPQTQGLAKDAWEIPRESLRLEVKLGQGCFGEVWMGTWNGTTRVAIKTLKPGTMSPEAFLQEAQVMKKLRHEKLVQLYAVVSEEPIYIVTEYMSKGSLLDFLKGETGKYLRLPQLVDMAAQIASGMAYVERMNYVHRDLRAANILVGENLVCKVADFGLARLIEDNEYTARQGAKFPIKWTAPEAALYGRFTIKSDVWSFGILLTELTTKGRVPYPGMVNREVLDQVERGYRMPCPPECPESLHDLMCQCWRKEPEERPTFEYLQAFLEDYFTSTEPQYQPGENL
Protocol: as §1

ITK = biological target: T2, ITK (Homo sapiens, UniProt Q08881); test: Inhibition of a panel of kinases, in vitro HotSpot kinase assay: ITK
T2 sequence (Q08881 1-620): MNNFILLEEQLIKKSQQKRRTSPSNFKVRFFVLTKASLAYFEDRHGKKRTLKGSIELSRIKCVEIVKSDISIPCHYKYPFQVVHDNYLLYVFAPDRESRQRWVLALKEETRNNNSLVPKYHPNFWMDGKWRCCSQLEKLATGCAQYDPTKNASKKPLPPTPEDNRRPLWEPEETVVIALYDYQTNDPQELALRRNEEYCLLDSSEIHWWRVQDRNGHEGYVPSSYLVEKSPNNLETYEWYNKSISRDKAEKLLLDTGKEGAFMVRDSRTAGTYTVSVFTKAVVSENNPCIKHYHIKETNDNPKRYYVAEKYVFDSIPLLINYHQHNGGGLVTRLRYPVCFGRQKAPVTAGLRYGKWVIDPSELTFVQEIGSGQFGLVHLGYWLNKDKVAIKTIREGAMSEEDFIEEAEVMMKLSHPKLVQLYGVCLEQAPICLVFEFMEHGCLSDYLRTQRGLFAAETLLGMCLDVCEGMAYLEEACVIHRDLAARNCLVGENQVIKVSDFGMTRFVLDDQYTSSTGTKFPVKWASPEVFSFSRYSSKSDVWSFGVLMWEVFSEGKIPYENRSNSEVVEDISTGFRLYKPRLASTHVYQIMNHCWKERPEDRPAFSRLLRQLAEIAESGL
Protocol: as §1

TEC = biological target: T3, TEC (Homo sapiens, UniProt P42680); test: Inhibition of a panel of kinases, in vitro HotSpot kinase assay: TEC
T3 sequence (P42680 1-631): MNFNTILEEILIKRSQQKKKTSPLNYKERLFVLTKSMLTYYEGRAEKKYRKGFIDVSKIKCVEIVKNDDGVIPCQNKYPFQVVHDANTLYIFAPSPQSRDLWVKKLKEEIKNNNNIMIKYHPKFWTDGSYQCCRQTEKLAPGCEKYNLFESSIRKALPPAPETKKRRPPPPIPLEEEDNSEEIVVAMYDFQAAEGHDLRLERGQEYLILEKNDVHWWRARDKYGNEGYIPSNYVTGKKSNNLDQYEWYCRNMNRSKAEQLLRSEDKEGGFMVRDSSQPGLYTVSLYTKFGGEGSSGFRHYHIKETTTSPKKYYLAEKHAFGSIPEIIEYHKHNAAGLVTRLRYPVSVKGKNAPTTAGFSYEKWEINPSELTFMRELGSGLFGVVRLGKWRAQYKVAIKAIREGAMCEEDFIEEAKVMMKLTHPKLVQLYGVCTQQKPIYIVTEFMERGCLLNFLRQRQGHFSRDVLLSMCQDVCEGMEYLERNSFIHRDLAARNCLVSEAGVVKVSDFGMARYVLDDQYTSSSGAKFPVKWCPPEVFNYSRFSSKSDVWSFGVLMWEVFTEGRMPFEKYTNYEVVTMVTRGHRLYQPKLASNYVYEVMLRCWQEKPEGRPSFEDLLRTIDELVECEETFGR
Protocol: as §1

LCK = LCK (Homo sapiens, UniProt P06239); test: Inhibition of a panel of kinases, in vitro HotSpot kinase assay: LCK; conditions: read-out: IC50 LCK
LCK, sequence (P06239 whole entry): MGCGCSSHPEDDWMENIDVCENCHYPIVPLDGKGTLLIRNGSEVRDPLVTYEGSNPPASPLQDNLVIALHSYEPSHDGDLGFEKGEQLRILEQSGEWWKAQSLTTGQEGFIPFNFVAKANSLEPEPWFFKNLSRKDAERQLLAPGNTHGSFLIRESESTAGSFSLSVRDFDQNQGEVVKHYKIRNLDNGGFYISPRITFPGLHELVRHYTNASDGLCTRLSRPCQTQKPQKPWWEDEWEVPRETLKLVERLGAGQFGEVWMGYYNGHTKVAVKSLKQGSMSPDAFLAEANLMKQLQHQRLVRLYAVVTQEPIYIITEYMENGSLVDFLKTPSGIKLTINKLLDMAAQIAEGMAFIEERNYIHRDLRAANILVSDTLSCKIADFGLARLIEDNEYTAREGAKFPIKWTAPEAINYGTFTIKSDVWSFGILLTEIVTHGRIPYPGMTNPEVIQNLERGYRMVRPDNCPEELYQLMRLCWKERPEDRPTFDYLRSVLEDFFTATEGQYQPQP

[1] = Table 13, A compounds, 1 μM ATP

EGFR, sequence (P00533 25-1210): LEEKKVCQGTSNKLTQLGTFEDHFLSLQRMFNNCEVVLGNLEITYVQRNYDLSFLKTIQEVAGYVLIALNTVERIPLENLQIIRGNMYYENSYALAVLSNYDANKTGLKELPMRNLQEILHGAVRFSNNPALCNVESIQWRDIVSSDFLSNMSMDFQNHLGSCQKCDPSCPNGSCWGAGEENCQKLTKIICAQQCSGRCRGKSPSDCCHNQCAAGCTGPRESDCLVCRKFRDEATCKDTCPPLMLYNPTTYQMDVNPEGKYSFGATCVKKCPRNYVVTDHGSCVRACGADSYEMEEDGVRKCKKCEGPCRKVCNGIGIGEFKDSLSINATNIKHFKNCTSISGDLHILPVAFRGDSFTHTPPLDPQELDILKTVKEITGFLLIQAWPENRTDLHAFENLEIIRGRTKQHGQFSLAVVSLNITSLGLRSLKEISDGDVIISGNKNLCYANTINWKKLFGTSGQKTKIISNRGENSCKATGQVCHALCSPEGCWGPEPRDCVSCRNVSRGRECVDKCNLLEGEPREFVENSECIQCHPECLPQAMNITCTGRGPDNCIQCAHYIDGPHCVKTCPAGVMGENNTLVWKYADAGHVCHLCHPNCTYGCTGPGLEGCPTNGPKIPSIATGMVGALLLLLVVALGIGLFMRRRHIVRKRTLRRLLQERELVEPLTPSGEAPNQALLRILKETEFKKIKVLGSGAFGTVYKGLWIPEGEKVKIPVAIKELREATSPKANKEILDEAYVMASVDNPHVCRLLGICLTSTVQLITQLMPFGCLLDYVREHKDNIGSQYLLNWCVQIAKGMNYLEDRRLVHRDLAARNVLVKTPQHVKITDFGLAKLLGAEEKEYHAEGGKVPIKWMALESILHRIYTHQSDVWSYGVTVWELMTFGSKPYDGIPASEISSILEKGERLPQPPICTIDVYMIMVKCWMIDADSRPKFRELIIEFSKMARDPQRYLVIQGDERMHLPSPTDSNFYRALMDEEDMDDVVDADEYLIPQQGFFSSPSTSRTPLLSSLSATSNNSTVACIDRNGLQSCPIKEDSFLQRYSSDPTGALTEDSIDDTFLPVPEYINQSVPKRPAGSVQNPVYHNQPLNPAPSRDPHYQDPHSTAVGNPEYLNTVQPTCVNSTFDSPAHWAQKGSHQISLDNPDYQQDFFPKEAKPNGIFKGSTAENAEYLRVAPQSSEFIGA

Row | SMILES | pIC50 (EGFR; [1]) | pIC50 (JAK3; [1]) | pIC50 (SRC; [1]) | pIC50 (ITK; [1]) | pIC50 (TEC; [1]) | pIC50 (LCK; [1]) | pIC50 (EGFR; E compounds, Table 17) | pIC50 (JAK3; E compounds, Table 17) | pIC50 (SRC; E compounds, Table 17) | pIC50 (ITK; E compounds, Table 17) | pIC50 (TEC; E compounds, Table 17) | pIC50 (LCK; E compounds, Table 17)
1 | C[C@@H]1[C@H](NC(=O)c2ccc(C3CC3)cc2F)CCCN1c1cnc(C(N)=O)c(Nc2nc3c(s2)CN(C)CC3)n1 [Example A-108, 5-[(2R,3R)-3-(4-cyclopropyl-2-fluorobenzamido)-2-methylpiperidin-1-yl]-3-({5-methyl-4H,5H,6H,7H-[1,3]thiazolo[5,4-c]pyridin-2-yl}amino)pyrazine-2-carboxamide] | < 5.00 | < 5.00 | < 5.00 | < 5.00 | 6.00 to 7.00 | < 5.00 |  |  |  |  |  | 
2 | Cc1cc(C(=O)N[C@@H]2CCCN(c3cnc(C(N)=O)c(Nc4cnn(C)c4)n3)[C@@H]2C)ccc1C(C)(C)O [Example E-152, 5-((2R,3R)-3-(4-(2-hydroxypropan-2-yl)-3-methylbenzamido)-2-methylpiperidin-1-yl)-3-((1-methyl-1H-pyrazol-4-yl)amino)pyrazine-2-carboxamide] |  |  |  |  |  |  | 5.00 to 6.00 | 6.00 to 7.00 | 7.00 to 8.00 | 6.00 to 7.00 | ≥ 8.00 | 7.00 to 8.00
3 | C=CC(=O)N[C@@H]1CCCN(c2cnc(C(N)=O)c(Nc3ccc(C4CCN(C5CC5)CC4)cc3)n2)[C@@H]1C [Example E-93, 5-((2R,3R)-3-acrylamido-2-methylpiperidin-1-yl)-3-(4-(1-cyclopropylpiperidin-4-yl)phenylamino)pyrazine-2-carboxamide] |  |  |  |  |  |  | 7.00 to 8.00 | > 8.00 | ≥ 8.00 | 7.00 to 8.00 | ≥ 8.00 | 7.00 to 8.00
4 | C[C@@H]1[C@H](NC(=O)c2ccc(C3CC3)cc2F)CCCN1c1cnc(C(N)=O)c(Nc2cnn(C)c2)n1 [Example A-110, 5-[(2R,3R)-3-(4-cyclopropyl-2-fluorobenzamido)-2-methylpiperidin-1-yl]-3-[(1-methyl-1H-pyrazol-4-yl)amino]pyrazine-2-carboxamide] | 5.00 to 6.00 | 5.00 to 6.00 | 6.00 to 7.00 | 6.00 to 7.00 | 7.00 to 8.00 | 5.00 to 6.00 |  |  |  |  |  | 
5 | C=CC(=O)N1CC[C@@H](N(C)c2nnc(C(N)=O)c(Nc3ccc(C(C)C)cc3)n2)C1 [Example E-26, (R)-3-((1-acryloylpyrrolidin-3-yl)(methyl)amino)-5-(4-isopropylphenylamino)-1,2,4-triazine-6-carboxamide] |  |  |  |  |  |  | ≥ 8.00 | > 8.00 | 7.00 to 8.00 | ≥ 8.00 | ≥ 8.00 | 5.00 to 6.00
6 | C=CC(=O)N1CCC[C@@H](Nc2nnc(C(N)=O)c(Nc3ccc(-c4ncccn4)cc3)n2)C1 [Example E-41, (R)-3-(1-acryloylpiperidin-3-ylamino)-5-(4-(pyrimidin-2-yl)phenylamino)-1,2,4-triazine-6-carboxamide] |  |  |  |  |  |  | 7.00 to 8.00 | > 8.00 | 6.00 to 7.00 | 7.00 to 8.00 | ≥ 8.00 | 6.00 to 7.00
7 | C=CC(=O)N1CCC[C@@H](N(C)c2cnc(C(N)=O)c(Nc3ccc(C4CCN(C5CCCC5)CC4)cc3)n2)C1 [Example E-125, (R)-5-((1-acryloylpiperidin-3-yl)(methyl)amino)-3-(4-(1-cyclopentylpiperidin-4-yl)phenylamino)pyrazine-2-carboxamide] |  |  |  |  |  |  | 7.00 to 8.00 | > 8.00 | ≥ 8.00 | ≥ 8.00 | ≥ 8.00 | 7.00 to 8.00
8 | C[C@@H]1[C@H](NC(=O)c2ccc(C3CC3)cc2)CCCN1c1cnc(C(N)=O)c(Nc2cnn(CCN(C)C)c2)n1 [Example A-182, 5-[(2R,3R)-3-(4-cyclopropylbenzamido)-2-methylpiperidin-1-yl]-3-({1-[2-(dimethylamino)ethyl]-1H-pyrazol-4-yl}amino)pyrazine-2-carboxamide] | 5.00 to 6.00 | 5.00 to 6.00 | 6.00 to 7.00 | 5.00 to 6.00 | 6.00 to 7.00 | 6.00 to 7.00 |  |  |  |  |  | 
9 | CCC(O)(CC)c1ccc(C(=O)N[C@@H]2CCCN(c3cnc(C(N)=O)c(Nc4cnn(C)c4)n3)[C@@H]2C)cc1 [Example E-151, 5-((2R,3R)-3-(4-(3-hydroxypentan-3-yl)benzamido)-2-methylpiperidin-1-yl)-3-((1-methyl-1H-pyrazol-4-yl)amino)pyrazine-2-carboxamide] |  |  |  |  |  |  | 6.00 to 7.00 | 6.00 to 7.00 | 7.00 to 8.00 | 6.00 to 7.00 | ≥ 8.00 | 6.00 to 7.00
10 | C=CC(=O)N1CC[C@@H](N(C)c2nnc(C(N)=O)c(Nc3cc(C)ns3)n2)C1 [Example E-12, (R)-3-((1-acryloylpyrrolidin-3-yl)(methyl)amino)-5-(3-methylisothiazol-5-ylamino)-1,2,4-triazine-6-carboxamide] |  |  |  |  |  |  | 7.00 to 8.00 | > 8.00 | 7.00 to 8.00 | ≥ 8.00 | ≥ 8.00 | 6.00 to 7.00
11 | Cn1cc(Nc2nc(N3C[C@@H](NC(=O)c4ccc(C5CC5)cc4)CC(F)(F)C3)cnc2C(N)=O)cn1 [Example A-187, (S)-5-(5-(4-cyclopropylbenzamido)-3,3-difluoropiperidin-1-yl)-3-(1-methyl-1H-pyrazol-4-ylamino)pyrazine-2-carboxamide] | 5.00 to 6.00 | 5.00 to 6.00 | < 5.00 | < 5.00 | 5.00 to 6.00 | < 5.00 |  |  |  |  |  | 
12 | C=CC(=O)N1CCC[C@@H](N(C)c2cnc(C(N)=O)c(Nc3ccc(C4(C)CCN(C5CCCC5)CC4)cc3)n2)C1 [Example E-103, (R)-5-((1-acryloylpiperidin-3-yl)(methyl)amino)-3-(4-(1-cyclopentyl-4-methylpiperidin-4-yl)phenylamino)pyrazine-2-carboxamide] |  |  |  |  |  |  | ≥ 8.00 | > 8.00 | ≥ 8.00 | ≥ 8.00 | ≥ 8.00 | > 8.00
